In US20260223861A1, “NATURAL PESTICIDAL COMPOSITIONS AND METHODS OF CONTROLLING ARTHROPODS” (TERRAMERA, INC., priority 2023, published 2026):
Several values for one entry are separate records, joined by “and”; a condition that tells them apart may be missing. Identical values can stand only once.

Tested on: German cockroaches
Experiment: Spraying compositions on German cockroaches, knock-down and mortality (dead incl. moribund) observed
Assay type: in vivo
Details: knocked-down and dead insects, concentrations w/w in water
Procedure: In the following in vitro examples, various compounds were combined and the resulting composition was tested for efficacy. Each composition was mixed using a magnetic stir bar at room temperature (21° C.), except as otherwise noted herein. […] Water-insoluble and/or -immiscible ingredients, such as wintergreen oil, geraniol, oleic acid, and Na oleate, were dissolved and mixed as a separate fraction (the water-insoluble fraction). The water-insoluble fraction was then mixed with the water-soluble fraction by gentle stirring. All tested compositions comprised the tested compounds in solution with water. Each composition was tested for efficacy by spraying the composition on German cockroaches and observing the number of knocked-down and dead (including moribund) insects twice, once at 5 minutes after spraying and once at 48 hours after spraying. Either such measure of knock-down and mortality can be important in certain contexts. For example, 5-minute knock-down and mortality can be important in consumer contexts, as efficacy is often assessed over a short interval in such contexts. Shorter intervals, such as 30 seconds or 1 minute, are also or alternatively sometimes used in such contexts. As another example, 48-hour knock-down and mortality can be important in agricultural or industrial contexts, as total reduction in pest pressure may be more readily assessed over longer periods in such contexts. […] Ingredients were also tested for efficacy on their own (in dilution in water to provide the same concentration of the ingredient as in the tested compositions) using the same testing procedure. An expected efficacy for each formulation was determined based on the ingredients' individual tested efficacies based on the Colby equation, as described in greater detail by Ferry, Nancy; Stanley, Bruce H.; and Armel, Gregory (2005). “DESIGN AND […] OF BIOLOGICAL ASSAYS OF MIXTURES,” Conference on Applied Statistics in Agriculture. https://doi.org/10.4148/2475-7772.1133. Compositions with efficacy greater than this expected efficacy were determined to show synergistic efficacy.

[1] = 5 minutes after spraying, sulfate
[2] = 48 hours after spraying, sulfate

Row | Compound | Observed Efficacy (5 minutes after spraying) | Observed Efficacy (48 hours after spraying) | other results
1 | CCCCOC(=O)C(C)O (stereo not shown) [Butyl Lactate (20%), Butyl lactate] | 13% | 13% | –
2 | CCCCCCCCCCCCOS(=O)(=O)[O-].[Na+] [Sodium Lauryl Sulfate (2.5%), Sodium lauryl sulfate] | – | – | Observed Efficacy [1]: 0%; Observed Efficacy [2]: 0%
3 | CC(C)O [Isopropyl alcohol (5%), Isopropyl alcohol] | 0% | 0% | –
4 | CCCCOC(=O)C(C)O (stereo not shown) [Butyl Lactate (5%), Butyl lactate] | 13% | 13% | –
5 | CC(C)=CCC/C(C)=C/CO [Geraniol (10%), Geraniol] | 27% | 27% | –
6 | CCCCCCCC/C=C\CCCCCCCC(=O)OCC(O)CO (stereo not shown) [Glycerol Monooleate (1.25%), Glycerol monooleate] | 0% | 0% | –
7 | CCCCCCCCCCCCOS(=O)(=O)[O-].[Na+] [Sodium Lauryl Sulfate (1.25%), Sodium lauryl sulfate] | – | – | Observed Efficacy [1]: 0%; Observed Efficacy [2]: 0%
8 | CC(C)O [Isopropyl alcohol (10%), Isopropyl alcohol] | 0% | 0% | –
9 | CCCCCCCCCCCCOS(=O)(=O)[O-].[Na+] [Sodium Lauryl Sulfate (10%), Sodium lauryl sulfate] | – | – | Observed Efficacy (5 minutes after spraying, listed as Sodium lauryl sulfate (10%), sulfate): 0%; Observed Efficacy [1]: 0%; Observed Efficacy (48 hours after spraying, listed as Sodium lauryl sulfate (10%), sulfate): 0%; Observed Efficacy [2]: 0%
10 | CCCCCCCC/C=C\CCCCCCCC(=O)O [Oleic Acid (5%), Oleic acid] | 0% | 0% | –
11 | CCCCOC(=O)C(C)O (stereo not shown) [Butyl Lactate (2.5%), Butyl lactate] | 0% | 0% | –
12 | CC(C)=CCC/C(C)=C/CO [Geraniol (2.5%), Geraniol] | 20% | 20% | –
13 | CC(C)=CCC/C(C)=C/CO [Geraniol (5%), Geraniol] | 7% | 7% | –
14 | CCCCCCCCCCCCOS(=O)(=O)[O-].[Na+] [Sodium Lauryl Sulfate (5%), Sodium lauryl sulfate] | – | – | Observed Efficacy (5 minutes after spraying, listed as Sodium lauryl sulfate (5%), sulfate): 7%; Observed Efficacy [1]: 7%; Observed Efficacy (48 hours after spraying, listed as Sodium lauryl sulfate (5%), sulfate): 7%; Observed Efficacy [2]: 7%
15 | CCCCOC(=O)C(C)O (stereo not shown) [Butyl Lactate (10%), Butyl lactate] | 7% | 7% | –
16 | [Cl-].[Na+] [NaCl (2.5%), NaCl] | 0% | 0% | –
17 | CC(C)=CCC/C(C)=C/CO [Geraniol (20%), Geraniol] | 5% | 5% | –
18 | CCCCCCCC/C=C\CCCCCCCC(=O)O [Oleic Acid (20%), Oleic acid] | 5% and 0% | 5% and 0% | –
